Values after ≈ are worked out from the molar mass of the structure shown. Like-named read-outs stand apart in the source and are kept apart here.
Key:
[1] = test system: Staph. aureus B4 (pen. resistant); test: MIC against veterinary bacteria in vitro
Description: (§1) The activity of the compounds of the Examples against various veterinarily important bacteria, was assayed in vitro using two-fold serial dilutions in Diagnostic Sensitivity Test Agar inoculated with 10^4 organisms.

M. suipneumoniae MS 16 = test: MIC against mycoplasma in vitro; type: cell-based
[2] = test system: M. suipneumoniae ATCC 25095; test: MIC against mycoplasma in vitro; type: cell-based
[3] = test system: Strep. suis (group D) SPS11; test: MIC against veterinary bacteria in vitro
Description: as §1

M. suipneumoniae HK(2) = test: MIC against mycoplasma in vitro; type: cell-based
M. hyorhinis ATCC 25021 = test: MIC against mycoplasma in vitro; type: cell-based
E. coli NCTC 10418 = test: MIC against human bacteria in vitro; type: cell-based; settings: E. coli NCTC 10418, agar with 5% chocolated horse blood, 18 hours, 37° C.
Strep. dysgalactiae SPD1 = test: MIC against veterinary bacteria in vitro
Description: as §1

E. coli E1 = test: MIC against veterinary bacteria in vitro
Description: as §1

Strep. pneumoniae CN33 = test: MIC against human bacteria in vitro; type: cell-based; settings: Strep. pneumoniae CN33, 5% chocolated horse blood agar, 18 hours
Past. multocida PA1 = test: MIC against veterinary bacteria in vitro; settings: Past. multocida PA1; Diagnostic Sensitivity Test Agar, 18 hours
Description: as §1

S. dublin S7 = test: MIC against veterinary bacteria in vitro
Description: as §1

Past. multocida PA2 = test: MIC against veterinary bacteria in vitro; settings: Past. multocida PA2; Diagnostic Sensitivity Test Agar, 18 hours
Description: as §1

P. mirabilis 889 = test: MIC against human bacteria in vitro; type: cell-based; settings: P. mirabilis 889, 5% chocolated horse blood agar, 18 hours
Strep. faecalis I = test: MIC against human bacteria in vitro; type: cell-based; settings: Strep. faecalis I, 5% chocolated horse blood agar, 18 hours
[4] = test system: Corynebacterium xerosis 9755; test: MIC against human bacteria in vitro; type: cell-based; settings: Corynebacterium xerosis 9755, 5% chocolated horse blood agar, 18 hours
M. suipneumoniae LABER = test: MIC against mycoplasma in vitro; type: cell-based
Staph. aureus Russell = test: MIC against human bacteria in vitro; type: cell-based; settings: Staph. aureus Russell, 5% chocolated horse blood agar, 18 hours
M. hyorhinis ATCC 23234 = test: MIC against mycoplasma in vitro; type: cell-based
E. coli ESS = test: MIC against human bacteria in vitro; type: cell-based; settings: E. coli ESS, 5% chocolated horse blood agar, 18 hours
K. aerogenes A = test: MIC against human bacteria in vitro; type: cell-based; settings: K. aerogenes A, 5% chocolated horse blood agar, 18 hours
M. suipneumoniae UCD 1 = test: MIC against mycoplasma in vitro; type: cell-based
Strep. spp. 64/848-C = test: MIC against human bacteria in vitro; type: cell-based; settings: Strep. spp. 64/848-C, 5% chocolated horse blood agar, 18 hours
M. suipneumoniae TAM 6N = test: MIC against mycoplasma in vitro; type: cell-based
Bord. bronchiseptica B09 = test: MIC against veterinary bacteria in vitro
Description: as §1

Staph. aureus Oxford = test: MIC against human bacteria in vitro; type: cell-based; settings: Staph. aureus Oxford, 5% chocolated horse blood agar, 18 hours
[5] = test system: Pasteurella multocida 1633; test: MIC against human bacteria in vitro; type: cell-based; settings: Pasteurella multocida 1633, 5% chocolated horse blood agar, 18 hours
Staph. aureus W2827 = test: MIC against human bacteria in vitro; type: cell-based; settings: Staph. aureus W2827, 5% chocolated horse blood agar, 18 hours
Bacillus subtilis 6633 = test: MIC against human bacteria in vitro; type: cell-based; settings: Bacillus subtilis 6633, 5% chocolated horse blood agar, 18 hours
M. dispar NCTC 10125 = test: MIC against mycoplasma in vitro; type: cell-based; settings: M. dispar NCTC 10125, 6 days, 37° C.
Bord. bronchiseptica B08 = test: MIC against veterinary bacteria in vitro
Description: as §1

Strep. agalactiae SPA1 = test: MIC against veterinary bacteria in vitro
Description: as §1

Strep. agalactiae 2788-B = test: MIC against human bacteria in vitro; type: cell-based; settings: Strep. agalactiae 2788-B, 5% chocolated horse blood agar, 18 hours
[6] = Mesomycoplasma hyopneumoniae, 144 h
[7] = Staphylococcus aureus, read-out: MIC

**Q.** What does the source list for `CC(=Cc1cc(C)no1)CC1OCC(CC2OC2C(C)C(C)O)C(O)C1O` (stereo not shown) [Example 30, 3-Methyl-5-(1-normon-2-yl) isoxazole A]?
**A.** MIC ([1]; Staph. aureus B4 (pen. resistant), Diagnostic Sensitivity Test Agar, 18 hours): 1.25 µg/mL (≈ 3.28 µM); MIC (M. suipneumoniae MS 16; M. suipneumoniae MS 16, 6 days, 37° C.): 2.5 µg/mL (≈ 6.55 µM); MIC ([2]; M. suipneumoniae ATCC 25095, 6 days, 37° C.): 2.5 µg/mL (≈ 6.55 µM); MIC ([3]; Strep. suis (group D) SPS11, Diagnostic Sensitivity Test Agar, 18 hours): > 80 µg/mL; MIC (M. suipneumoniae HK(2); M. suipneumoniae HK(2), 6 days, 37° C.): 2.5 µg/mL (≈ 6.55 µM); MIC (M. hyorhinis ATCC 25021; M. hyorhinis ATCC 25021, 6 days, 37° C.): 0.5 µg/mL (≈ 1.31 µM); MIC (E. coli NCTC 10418): > 128 µg/mL; MIC (Strep. dysgalactiae SPD1; Strep. dysgalactiae SPD1, Diagnostic Sensitivity Test Agar, 18 hours): 40 µg/mL (≈ 105 µM); MIC (E. coli E1; E. coli E1, Diagnostic Sensitivity Test Agar, 18 hours, 37° C.): > 80 µg/mL; MIC (Strep. pneumoniae CN33): 128 µg/mL (≈ 336 µM); MIC (Past. multocida PA1): 2.5 µg/mL (≈ 6.55 µM); MIC (S. dublin S7; S. dublin S7, Diagnostic Sensitivity Test Agar, 18 hours): > 80 µg/mL; MIC (Past. multocida PA2): 0.312 µg/mL (≈ 0.818 µM); MIC (P. mirabilis 889): > 128 µg/mL; MIC (Strep. faecalis I): > 128 µg/mL; MIC [4]: > 128 µg/mL; MIC (M. suipneumoniae LABER; M. suipneumoniae LABER, 6 days, 37° C.): 2.5 µg/mL (≈ 6.55 µM); MIC (Staph. aureus Russell): 16 µg/mL (≈ 41.9 µM); MIC (M. hyorhinis ATCC 23234; M. hyorhinis ATCC 23234, 6 days, 37° C.): 0.5 µg/mL (≈ 1.31 µM); MIC (E. coli ESS): 8.0 µg/mL (≈ 21 µM); MIC (K. aerogenes A): > 128 µg/mL; MIC (M. suipneumoniae UCD 1; M. suipneumoniae UCD 1, 6 days, 37° C.): 2.5 µg/mL (≈ 6.55 µM); MIC (Strep. spp. 64/848-C): > 128 µg/mL; MIC (M. suipneumoniae TAM 6N; M. suipneumoniae TAM 6N, 6 days, 37° C.): 5.0 µg/mL (≈ 13.1 µM); MIC (Bord. bronchiseptica B09; Bord. bronchiseptica B09, Diagnostic Sensitivity Test Agar, 18 hours): > 80 µg/mL; MIC (Staph. aureus Oxford): 8.0 µg/mL (≈ 21 µM); MIC [5]: 8.0 µg/mL (≈ 21 µM); MIC (Staph. aureus W2827): 16 µg/mL (≈ 41.9 µM); MIC (Bacillus subtilis 6633): 8.0 µg/mL (≈ 21 µM); MIC (M. dispar NCTC 10125): 0.25 µg/mL (≈ 0.655 µM); MIC (Bord. bronchiseptica B08; Bord. bronchiseptica B08, Diagnostic Sensitivity Test Agar, 18 hours): > 80 µg/mL; MIC (Strep. agalactiae SPA1; Strep. agalactiae SPA1, Diagnostic Sensitivity Test Agar, 18 hours): 40 µg/mL (≈ 105 µM); MIC (Strep. agalactiae 2788-B): 128 µg/mL (≈ 336 µM)

**Q.** Which results are given for `C/C(=C\c1cc(-c2ccccc2)on1)C[C@@H]1OC[C@H](C[C@@H]2O[C@H]2[C@@H](C)[C@H](C)O)[C@@H](O)[C@H]1O` [Example 34, 3-(1-Normon-2-yl)-5-phenylisoxazole A]?
**A.** MIC ([1]; Staphylococcus aureus, 18 h): 2.5 µg/mL (≈ 5.64 µM); MIC (M. suipneumoniae MS 16; Mesomycoplasma hyopneumoniae, MS16, 144 h): 1 µg/mL (≈ 2.25 µM); MIC ([2]; Mesomycoplasma hyopneumoniae, ATCC25095, 144 h): 1 µg/mL (≈ 2.25 µM); MIC ([3]; Streptococcus suis, 18 h): 80 µg/mL (≈ 180 µM); MIC (M. suipneumoniae HK(2); [6]): 2.5 µg/mL (≈ 5.64 µM); MIC (M. hyorhinis ATCC 25021; Mesomycoplasma hyorhinis, ATCC25021, 144 h): 1 µg/mL (≈ 2.25 µM); MIC (E. coli NCTC 10418; Escherichia coli, NCTC10418, read-out: MIC): > 128 µg/mL; MIC (Strep. dysgalactiae SPD1; Streptococcus dysgalactiae, SPD1, 18 h): 10 µg/mL (≈ 22.5 µM); MIC (E. coli E1; Escherichia coli, E1, 18 h): > 80 µg/mL; MIC (Strep. pneumoniae CN33; Streptococcus pneumoniae, read-out: MIC): 64 µg/mL (≈ 144 µM); MIC (S. dublin S7; Salmonella enterica, S7, 18 h): > 80 µg/mL; MIC (P. mirabilis 889; Proteus mirabilis, read-out: MIC): > 128 µg/mL; MIC (Strep. faecalis I; Enterococcus faecalis, read-out: MIC): > 128 µg/mL; MIC ([4]; read-out: MIC): > 128 µg/mL; MIC (M. suipneumoniae LABER; [6]): 1 µg/mL (≈ 2.25 µM); MIC (Staph. aureus Russell; [7]): 16 µg/mL (≈ 36.1 µM); MIC (M. hyorhinis ATCC 23234; Mesomycoplasma hyorhinis, ATCC23234, 144 h): 2.5 µg/mL (≈ 5.64 µM); MIC (E. coli ESS; Escherichia coli, read-out: MIC): 16 µg/mL (≈ 36.1 µM); MIC (K. aerogenes A; Klebsiella aerogenes, read-out: MIC): > 128 µg/mL; MIC (M. suipneumoniae UCD 1; Mesomycoplasma hyopneumoniae, UCD1, 144 h): 2.5 µg/mL (≈ 5.64 µM); MIC (Strep. spp. 64/848-C; read-out: MIC): 64 µg/mL (≈ 144 µM); MIC (M. suipneumoniae TAM 6N; Mesomycoplasma hyopneumoniae, TAM6N, 144 h): 2.5 µg/mL (≈ 5.64 µM); MIC (Bord. bronchiseptica B09; Bordetella bronchiseptica, B09, 18 h): 40 µg/mL (≈ 90.2 µM); MIC (Staph. aureus Oxford; [7]): 8 µg/mL (≈ 18 µM); MIC ([5]; read-out: MIC): 64 µg/mL (≈ 144 µM); MIC (Staph. aureus W2827; [7]): 16 µg/mL (≈ 36.1 µM); MIC (Bacillus subtilis 6633; read-out: MIC): 4 µg/mL (≈ 9.02 µM); MIC (M. dispar NCTC 10125; 144 h, read-out: MIC): 0.5 µg/mL (≈ 1.13 µM); MIC (Bord. bronchiseptica B08; Bordetella bronchiseptica, B08, 18 h): > 80 µg/mL; MIC (Strep. agalactiae SPA1; Streptococcus agalactiae, SPA1, 18 h): 40 µg/mL (≈ 90.2 µM); MIC (Strep. agalactiae 2788-B; Streptococcus agalactiae, read-out: MIC): 64 µg/mL (≈ 144 µM)

Reference: patent US5041567A, “Antibacterial monic acid derivatives” (Beecham Group plc, priority 1982, dated 1991)
